# Results taken from US7304168B2, “Photo-caged fluorescent molecules” (Board of Regents, University of Texas System, priority 2003, dated 2007).
# How the values were obtained:
# [1] = Two photon uncaging action cross section at 740 nm with Bhc-OAc as reference; type: physicochemical; conditions: for photolysis after 20 minutes of continuous illumination: 345 mW exiting the cuvette; for sensitivity to two photon uncaging relative to 2a: average power 590 mW exiting the cuvette
# Protocol: To calculate δu, 6-bromo-7-hydroxycoumarin-4-ylmethyl acetate (Bhc-OAc) was used as a reference compound (Furuta, 1999; Fedoryak, 2002). The compounds tested included Compound 2a from FIG. 3 and a compound 2a′ having the structure:
# Bhc-OAc, Compound 2a, and Compound 2a′ in microcuvettes were illuminated using focused infrared light ([…]) from a femtosecond-pulsed and mode locked Ti-sapphire laser. The two photon uncaging action cross section was determined using the equation (Furuta, 1999):
# [formula] • where Np is the number of product molecules formed per unit time, <I0^2(t)> is the mean squared light intensity, S(r) is a unitless spatial distribution function, and the integral is over the volume of the microcuvet, and Cs is the substrate concentration. If caged compounds are photolyzed under the identical setting with the same two photon laser power, then the term <I0^2(t)>∫S^2(r)dV should be about the same for different cages. Thus, δu^a of cage “a” can be determined by comparing its rate of product formation (Np^a) with that of reference cage “b” with known δu^b according to the equation: […]
# The formation of coumarins after two photon photolysis of Compound 2a and […] was quantified similarly as in the one photon uncaging experiments by measuring the fluorescence enhancement. The photolysis of Bhc-OAc was quantified by HPLC analysis as described (Furuta, 1999; Fedoryak, 2002).
# Two photon photolysis was carried out using a procedure similar to the one first described by Furuta et al (Furuta, 1999). Samples in 100 mM Mops buffer (pH 7.3) were transferred to a microcuvette (Hellma 105.251-QS). The filling volume of the cuvette was […]. The laser beam from a fs-pulsed and mode-locked Ti-Sapphire laser (Mira 900-F pumped by a Verdi, Coherent, Santa Clara, Calif.) was focused into the center of the cuvette with a focusing lens (01 LPX 029/077, focal length 25 mm, Melles-Griot, Carlsbad, Calif.). After irradiation with 740 nm light, samples were collected and the formation of the products was quantified. The formation of coumarins from caged precursors 2a or 2a′ (initial concentration 10 μM) was measured by fluorescence spectroscopy. The photolysis of Bhc-OAc (initial concentration 100 μM) was followed by HPLC. Two-photon uncaging cross sections (δu) were calculated from equation (2) and the reported δu of 0.72 GM for Bhc-OAc at 345 mW laser power exiting the cuvette (Fedoryak, 2002).
# [2] = system: human fibroblasts; conditions: human fibroblasts loaded with Fluo-3/AM
# Description: Human fibroblasts were loaded with the calcium indicator Fluo-3/AM (Molecular Probes), and a caged and cell permeable coumarin derivative (compound 8, FIG. 6). […] Optical filters were used (coumarin excitation, 440AF21 (Omega Optical); Fluo-3 excitation, 490/20; UV uncaging 330WB80; dichroic, 61010bs; emission filter, 84101 special; all of Chroma Technology unless stated otherwise).
# Fluo-3 measures cell calcium concentrations.
# [3] = at 730 nm; cited from earlier work
# [4] = system: gap junction transfers in coupled human fibroblast cells; experiment: Inhibition of junctional coumarin (HCCC2) transfer after localized uncaging; type: cell-based; conditions: human fibroblasts loaded with NPE-HCCC2-AM (1 μM); added prior to the third uncaging
# Protocol: Coupled human fibroblast cells were loaded with NPE-HCCC2-AM (1 μM) for 40 minutes in Hanks Balanced Saline (HBS with 10 mM Hepes, 5.5 mM glucose, pH 7.3), then washed and incubated for another 15 minutes before imaging on an inverted fluorescence microscope. The time course of fluorescent intensities of HCCC2 after it was locally uncaged in the “donor” cells is shown in FIG. 10 (FHCCC2, arbitrary units, 425±5 nm excitation, 460±10 nm emission). A field diaphragm was placed in the excitation light path inside the microscope. The iris of the field diaphragm was reduced to a minimum to limit the area of UV illumination (360±20 nm) to a fraction of a cell during localized uncagings. Digital fluorescence images were taken every 15 seconds. The rates of HCCC2 diffusion are indicated under each episode of transfer. α-Glycyrrhetinic (“αG”) was added to the cells prior to the third uncaging. αG is a classical inhibitor of gap junction transfers (Rozental, et al., 2001).
# [5] = 740 nm, 345 mW laser power exiting the cuvette; cited from earlier work
compound,measurement,setting,value
COC(=O)CC[C@@H](NC(=O)c1cc2ccc(OC(C)c3ccccc3[N+](=O)[O-])cc2oc1=O)C(=O)OC (stereo partly drawn) [Compound 2a′],photolysis after 20 minutes of continuous illumination,[1],10%
same,sensitivity to two photon uncaging relative to 2a,[1],about two times more sensitive to two photon uncaging than 2a
same,"δu, two photon uncaging action cross section",[1]; estimated against Bhc-OAc (0.72 GM),0.68 GM
NCCc1c[nH]cn1 [histamine],intracellular calcium (Fluo-3 channel),[2],induced intracellular calcium increase
COc1ccc([N+](=O)[O-])c2c1CCN2C(=O)CC[C@H](N)C(=O)O [MNI caged glutamate],"δu, two photon uncaging cross section",[3],0.06 GM
"CC1(C)[C@@H](O)CC[C@]2(C)[C@H]3C(=O)C=C4[C@H]5C[C@@](C)(C(=O)O)CC[C@]5(C)CC[C@@]4(C)[C@]3(C)CC[C@@H]12 [αG, α-glycyrrhetinic acid]",inhibition of coumarin transfer through gap junctions,[4],susceptible to inhibition by αG
"CC(=O)OCc1cc(=O)oc2cc(O)c(Br)cc12 [Bhc-OAc, 6-bromo-7-hydroxycoumarin-4-ylmethyl acetate]","reported δu, two photon uncaging cross section",[5],0.72 GM
same,photolysis after 20 minutes of continuous illumination,[1],10.6%
same,sensitivity to two photon uncaging relative to 2a,[1],about two times more sensitive to two photon uncaging than 2a
